# In patent publication US20200003762A1, “Diagnostics Platform for Mitochondrial Dysfunctions/Diseases” (BioElectron Technology Corporation, priority 2018, published 2020):
# Assays:
# isolated rat hearts = settings: during ischemia; cited from earlier work
# [1] = tested on: mitochondrial FIFO ATP synthase; settings: cited from earlier work
# FIFO = settings: cited from earlier work
# [2] = tested on: monocarboxylic acid transport; settings: cited from earlier work
# [3] = tested on: β-cell apical anion exchange; settings: read-out: block β-cell apical anion exchange (IC50); cited from earlier work
# HL-1 = settings: cited from earlier work
# mitochondrial ATPase = settings: cited from earlier work
# ferroptosis = settings: cited from earlier work
# neoplastic cells = settings: by interfering with hexokinase and disrupting uncoupler-stimulated mitochondrial electron transport; cited from earlier work
# [4] = tested on: succinate cythochrome C reductase; settings: mitochondria preparations of S. cerevisiae; cited from earlier work
# [5] = tested on: NADH-cytochrome C reductase; settings: mitochondria preparations of S. cerevisiae; cited from earlier work
# succinate oxidase = settings: mitochondria preparations of S. cerevisiae; cited from earlier work
# NADH oxidase = settings: mitochondria preparations of S. cerevisiae; cited from earlier work
# [6] = tested on: brush-border membrane vesicles; settings: cited from earlier work
# ADP ribosylation = settings: cited from earlier work
# [7] = biological target: human porphobilinogen synthase (PBGS; ALAD) (Homo sapiens, UniProt P13716); settings: allosteric; cited from earlier work
# apoptosis = settings: cited from earlier work
# Y79 = test: Exemplary training dataset: dysfunction D1 in Y79 cultures exposed to inhibitor A8674; format: cell-based, Human
# From the text: or more simply by Yt1 . . . i,d1 . . . j,c1 . . . l or still as a vector Y of the form [y1, y2, . . . , yi*j*l]. Thus, a partial excerpt from an exemplary training data derived from input tensor X for system 100 may be given by Table 7 below:
# In the above training dataset, each entry of column Y is a value in the vector Y discussed above. Each entry q of column X(qk) with a hat “^” denotes a vector and is an entry in input tensor X, and is a vector of measured quantities [q1, q2, . . . , qk] of the analytes in the biomarker measurement such as those shown in Tables 3-5. In other words, the training dataset consists of measured vectors q at indices i,j,l of tensor X per above explanation. Human retinoblastoma (Y79) from Table 1 above is used as the cell-line from which in vitro cultures are grown.
# Note that rows 1-6 correspond to the scenario when no inhibitor was exposed (zero/O state), and unsurprisingly column Y indicates a 0 or a 0% probability that dysfunction D1 is present in the corresponding culture.
# [8] = tested on: NADH:ubiquinone oxidoreductase; settings: cited from earlier work
# PPARγ = PPARγ (Homo sapiens, UniProt P37231); settings: cited from earlier work
# [9] = tested on: mice models of diabetes II; settings: cited from earlier work
# [10] = biological target: mitochondrial outer membrane protein mitoNEET (Homo sapiens, UniProt Q9NZ45); settings: cited from earlier work
# β-amyloid = settings: cited from earlier work
# [11] = tested on: mitochondrial superoxide production; settings: cited from earlier work
# [12] = tested on: plasma and mitochondrial membranes; settings: cited from earlier work
# Mg2+-ATPase = settings: cited from earlier work
# background K+ current = settings: cited from earlier work
# Sequence of mitochondrial outer membrane protein mitoNEET (Q9NZ45 whole entry): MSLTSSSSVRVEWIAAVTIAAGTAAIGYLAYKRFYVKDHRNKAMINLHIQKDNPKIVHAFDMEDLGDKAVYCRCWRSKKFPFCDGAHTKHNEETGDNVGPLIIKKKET
# Sequence of human porphobilinogen synthase (PBGS; ALAD) (P13716 whole entry): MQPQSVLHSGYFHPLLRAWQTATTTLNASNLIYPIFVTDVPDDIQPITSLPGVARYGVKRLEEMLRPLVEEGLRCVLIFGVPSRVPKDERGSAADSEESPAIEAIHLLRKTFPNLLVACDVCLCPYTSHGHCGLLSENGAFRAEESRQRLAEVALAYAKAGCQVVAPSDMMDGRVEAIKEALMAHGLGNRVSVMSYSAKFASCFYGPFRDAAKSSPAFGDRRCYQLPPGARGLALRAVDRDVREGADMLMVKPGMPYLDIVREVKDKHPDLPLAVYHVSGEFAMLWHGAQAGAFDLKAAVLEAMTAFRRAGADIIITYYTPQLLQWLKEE
# Sequence of PPARγ (P37231 whole entry, species assumed): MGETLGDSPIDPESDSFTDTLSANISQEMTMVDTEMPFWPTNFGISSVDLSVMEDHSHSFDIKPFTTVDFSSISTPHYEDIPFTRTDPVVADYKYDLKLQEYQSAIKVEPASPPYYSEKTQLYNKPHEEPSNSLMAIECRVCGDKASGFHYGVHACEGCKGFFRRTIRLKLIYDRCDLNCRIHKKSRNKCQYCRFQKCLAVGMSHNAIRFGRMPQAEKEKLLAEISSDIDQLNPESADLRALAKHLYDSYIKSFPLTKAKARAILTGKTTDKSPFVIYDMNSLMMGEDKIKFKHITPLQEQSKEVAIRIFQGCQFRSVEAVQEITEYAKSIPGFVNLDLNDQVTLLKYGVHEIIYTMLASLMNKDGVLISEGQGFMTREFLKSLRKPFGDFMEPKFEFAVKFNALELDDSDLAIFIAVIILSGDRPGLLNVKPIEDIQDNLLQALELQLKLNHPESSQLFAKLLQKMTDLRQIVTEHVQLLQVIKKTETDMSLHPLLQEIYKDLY
molecule,measurement,setting,value
"CC1(C)Oc2ccc(S(=O)(=O)N3CCCCC3)cc2[C@@H](N(Cc2ncc[nH]2)c2ccc(Cl)cc2)[C@@H]1O.Cl [BM0017, BMS-199264 hydrochloride]",depletion of ATP levels,isolated rat hearts,"blocks depletion of ATP levels,"
same,ATP hydrolase activity of mitochondrial FIFO ATP synthase,[1],Potently inhibits the ATP
same,effect on the ATP synthase function of FIFO,FIFO,199624 has no effect on the ATP
"N#CC(=Cc1ccc(O)cc1)C(=O)O [C2020, α-Cyano-4-hydroxycinnamic acid]","monocarboxylic acid transport, including lactate and pyruvate transport",[2],Specific inhibitor of
same,IC50,[3],2.4 mM
"O=C(Oc1cc(S(=O)(=O)c2ccccc2)ccc1[N+](=O)[O-])c1ccc(Cl)cc1 [SML1122, BTB06584]",ATP hydrolase activity of mitochondrial FIFO ATP synthase,[1],BTB06584 inhibits the ATP
same,effect on mitochondrial membrane potential,HL-1,has no effect on oxygen
same,effect on oxygen consumption,HL-1,has no effect on oxygen
"CC[C@H]1/C=C/C=C/C[C@@H](C)[C@H](O)[C@@](C)(O)C(=O)[C@@H](C)[C@H](O)[C@@H](C)C(=O)[C@@H](C)[C@H](O)[C@@H](C)/C=C/C(=O)O[C@@H]2[C@H](C)[C@H](CC1)O[C@]1(CC[C@H](C)[C@H](C[C@@H](C)O)O1)[C@H]2C [compound 04876, Oligomycin from Streptomyces diastatochromogenes]",mitochondrial ATPase and phosphoryl group transfer,mitochondrial ATPase,Macrolide antibiotic; inhibits
Cc1c(C)c(O)c(CC[C@](C)(O)CCC[C@H](C)CCC[C@H](C)CCCC(C)C)c(C)c1O [vitamin E hydroquinone],inhibition of ferroptosis,ferroptosis,potent inhibitor
"O=C(O)c1nn(Cc2ccc(Cl)cc2Cl)c2ccccc12 [L4900, Lonidamine]",energy metabolism of neoplastic cells,neoplastic cells,Inhibits the energy metabolism
"O=[N+]([O-])c1c(Cl)cccc1-c1c[nH]cc1Cl [P8861, Pyrrolnitrin from Pseudomonas cepacia]",succinate cythochrome C reductase,[4],"inhibited succinate oxidase,"
same,NADH-cytochrome C reductase,[5],"inhibited succinate oxidase,"
same,succinate oxidase,succinate oxidase,"inhibited succinate oxidase,"
same,NADH oxidase,NADH oxidase,"inhibited succinate oxidase,"
"N#CC(C#N)=NNc1cccc(Cl)c1 [C2759, Carbonyl cyanide 3-chlorophenylhydrazone]",Cl-/Cl- exchange activities,[6],hepatic lipase and partially
same,pH gradient-activated Cl- uptake,[6],hepatic lipase and partially
m-Iodobenzyl-guanidine hemisulfate salt [I9890],ADP ribosylation,ADP ribosylation,Antitumor agent which inhibits
ML-3H2 [M2324],inhibition of human porphobilinogen synthase,[7],hexamer-stabilizing inhibitor
Antimycin A from Streptomyces sp. [A8674],apoptosis,apoptosis,complex III. Induces apoptosis.
same,Y (probability that dysfunction D1 is present),"Y79; 1 minute, 1 uL",0%
same,Y (probability that dysfunction D1 is present),"Y79; 30 minutes, 5 uL",100% or 1
same,Y (probability that dysfunction D1 is present),"Y79; 1 hours, 1 uL",100% or 1
same,Y (probability that dysfunction D1 is present),"Y79; 5 hours, 1 uL",100% or 1
same,Y (probability that dysfunction D1 is present),"Y79; 10 hours, 1 uL",100% or 1
same,Y (probability that dysfunction D1 is present),"Y79; 2 days, 1 uL",100% or 1
"C=C(C)[C@H]1Cc2c(ccc3c2O[C@@H]2COc4cc(OC)c(OC)cc4[C@@H]2C3=O)O1 [R8875, Rotenone]",mitochondrial electron transport at NADH:ubiquinone oxidoreductase,[8],Inhibitor of mitochondrial
"CCOC(=O)N1CCC(NC(=S)Nc2cc(Cl)cc(Cl)c2)CC1 [SML1280, TT01001]",PPARγ activation,PPARγ,without PPARγ activation.
same,glucose intolerance,[9]; mice models of diabetes II,"TT01001 improves hyperglycemia,"
same,hyperglycemia,[9]; mice models of diabetes II,"TT01001 improves hyperglycemia,"
same,hyperlipidemia,[9]; mice models of diabetes II,"TT01001 improves hyperglycemia,"
same,pioglitazone associated weight gain,"[9]; mouse, in vivo",anti-diabetic effects without
same,binding to mitoNEET,[10],ligands that binds to mitoNEET
"N#CC(C#N)=NNc1ccc(OC(F)(F)F)cc1 [C2920, Carbonyl cyanide 4-(trifluoromethoxy)phenylhydrazone]",β-amyloid production,β-amyloid,"ATPase activity, inhibits β-"
same,effect of selective glutamate agonist NMDA on mitochondrial superoxide production,[11],"amyloid production, and mimics"
same,depolarizing plasma and mitochondrial membranes,[12],depolarizing plasma and
same,Mg2+-ATPase activity,Mg2+-ATPase,[Na+]. FCCP stimulates Mg2+-
same,background K+ current,background K+ current,It also is reported to inhibit
same,inward current,background K+ current,"induce a small inward current,"
